Target: P. falciparum apicoplast DNA polymerase (Pf-apPOL) (Plasmodium falciparum, UniProt Q8ILY1)
Assay: Fluorescence-based high-throughput DNA polymerase assay (molecular beacon), primary screen and dose-response
Format: biochemical
Conditions: for DNA Pol: 90 min, 10 µM; for % inhibition Apo pol 10' 2.5 / % inhibition Apo pol 10' 5 / % inhibition Apo pol 10' 10 / % inhibition Apo pol 10' 20 / % inhibition Apo pol 10' 40 / % inhibition Apo pol 10' 80: read at 10'; for % inhibition Apol 90' 2.5 / % inhibition Apol 90' 5 / % inhibition Apol 90' 10 / % inhibition Apol 90' 20 / % inhibition Apol 90' 40 / % inhibition Apol 90' 80 / % inhibition ApPOL 90' 2.5 / % inhibition ApPOL 90' 5 / % inhibition ApPOL 90' 10 / % inhibition ApPOL 90' 20 / % inhibition ApPOL 90' 40 / % inhibition ApPOL 90' 80: read at 90'; for % inhibition apPOL 180' 2.5 / % inhibition apPOL 180' 5 / % inhibition apPOL 180' 10 / % inhibition apPOL 180' 20 / % inhibition apPOL 180' 40 / % inhibition apPOL 180' 80: read at 180'; for % inhibition Apo pol 5' 2.5 / % inhibition Apo pol 5' 5 / % inhibition Apo pol 5' 10 / % inhibition Apo pol 5' 20 / % inhibition Apo pol 5' 40 / % inhibition Apo pol 5' 80: read at 5'; for % inhibition Apol 40' 2.5 / % inhibition Apol 40' 5 / % inhibition Apol 40' 10 / % inhibition Apol 40' 20 / % inhibition Apol 40' 40 / % inhibition Apol 40' 80: read at 40'
Procedure, shortened: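 Single-point screening used 10 µM compound with 20 nM polymerase, 20 nM hairpin substrate and 6 µM dNTPs for 90 min at 25 °C. Confirmatory titrations (2.5–80 µM) followed fluorescence at three times, and IC50 was derived from a fit including a cooperativity term n.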

[1] = 186 hits, DNA Pol (screen value), unit not given
[2] = 'DNA Pol' (screen value), unit not given
[3] = first dose-response, concentration 10
[4] = first dose-response, concentration 20
[5] = first dose-response, concentration 40

Chain of P. falciparum apicoplast DNA polymerase (Pf-apPOL) (Q8ILY1 entry or part of it): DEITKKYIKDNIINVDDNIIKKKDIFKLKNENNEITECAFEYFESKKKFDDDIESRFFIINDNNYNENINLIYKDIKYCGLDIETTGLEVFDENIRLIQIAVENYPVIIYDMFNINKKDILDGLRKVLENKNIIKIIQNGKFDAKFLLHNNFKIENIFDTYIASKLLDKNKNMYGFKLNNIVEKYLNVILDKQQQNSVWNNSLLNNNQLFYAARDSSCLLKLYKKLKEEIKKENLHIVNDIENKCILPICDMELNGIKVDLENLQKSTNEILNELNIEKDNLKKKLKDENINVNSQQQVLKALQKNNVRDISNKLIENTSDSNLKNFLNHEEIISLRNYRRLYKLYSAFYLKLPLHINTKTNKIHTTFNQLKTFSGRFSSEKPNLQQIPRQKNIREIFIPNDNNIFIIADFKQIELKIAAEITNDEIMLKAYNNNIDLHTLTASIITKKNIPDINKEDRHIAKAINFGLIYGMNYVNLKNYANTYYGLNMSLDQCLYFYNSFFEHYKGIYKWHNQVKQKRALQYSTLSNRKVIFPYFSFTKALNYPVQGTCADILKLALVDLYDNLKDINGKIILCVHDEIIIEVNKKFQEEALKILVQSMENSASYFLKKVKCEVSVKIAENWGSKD

## Cn1nc(-c2nnc(-c3ccccc3F)o2)c2c1CCN(C(=O)c1ccccc1Cl)C2 [Molecule 34, Cn1nc(c2c1CCN(C2)C(=O)c1ccccc1Cl)c1nnc(o1)c1ccccc1F]
[1]
  DNA Pol: 48
[2]
  DNA Pol: 48
DRC-1, concentration 2.5
  % inhibition Apo pol 10' 2.5: 33%
  % inhibition Apol 90' 2.5: 23%
  % inhibition apPOL 180' 2.5: 17%
DRC-1, concentration 5
  % inhibition Apo pol 10' 5: 44%
  % inhibition Apol 90' 5: 35%
  % inhibition apPOL 180' 5: 28%
DRC-1, concentration 10
  % inhibition Apo pol 10' 10: 52%
  % inhibition Apol 90' 10: 46%
  % inhibition apPOL 180' 10: 41%
DRC-1, concentration 20
  % inhibition Apo pol 10' 20: 58%
  % inhibition Apol 90' 20: 54%
  % inhibition apPOL 180' 20: 50%
DRC-1, concentration 40
  % inhibition Apo pol 10' 40: 59%
  % inhibition Apol 90' 40: 59%
  % inhibition apPOL 180' 40: 58%
DRC-1, concentration 80
  % inhibition Apo pol 10' 80: 63%
  % inhibition Apol 90' 80: 65%
  % inhibition apPOL 180' 80: 64%
DRC-2, concentration 2.5
  % inhibition Apo pol 5': 20%
  % inhibition Apol 40': 22%
  % inhibition ApPOL 90': 22%
  % inhibition Apo pol 5' 2.5: 20%
  % inhibition Apol 40' 2.5: 22%
  % inhibition ApPOL 90' 2.5: 22%
  % inhibition apPOL 180' 2.5: 15%
DRC-2, concentration 5
  % inhibition Apo pol 5': 20%
  % inhibition Apol 40': 27%
  % inhibition ApPOL 90': 27%
  % inhibition Apo pol 5' 5: 20%
  % inhibition Apol 40' 5: 27%
  % inhibition ApPOL 90' 5: 27%
  % inhibition apPOL 180' 5: 21%
DRC-2, concentration 80
  % inhibition Apo pol 5': 39%
  % inhibition Apol 40': 52%
  % inhibition apPOL 180': 52%
  % inhibition Apo pol 5' 80: 39%
  % inhibition Apol 40' 80: 52%
  % inhibition ApPOL 90' 80: 55%
  % inhibition apPOL 180' 80: 52%
DRC-2, concentration 40
  % inhibition Apol 40': 49%
  % inhibition ApPOL 90': 52%
  % inhibition apPOL 180': 49%
  % inhibition Apo pol 5' 40: 38%
  % inhibition Apol 40' 40: 49%
  % inhibition ApPOL 90' 40: 52%
  % inhibition apPOL 180' 40: 49%
DRC-2, concentration 20
  % inhibition apPOL 180': 39%
  % inhibition Apo pol 5' 20: 29%
  % inhibition Apol 40' 20: 40%
  % inhibition ApPOL 90' 20: 43%
  % inhibition apPOL 180' 20: 39%
DRC-2, concentration 10
  % inhibition Apo pol 5' 10: 24%
  % inhibition Apol 40' 10: 34%
  % inhibition ApPOL 90' 10: 36%
  % inhibition apPOL 180' 10: 31%
[3]
  % inhibition Apo pol 10': 52%
[4]
  % inhibition Apo pol 10': 58%
[5]
  % inhibition Apo pol 10': 59%
  % inhibition Apol 90': 59%
  % inhibition apPOL 180': 58%

## O=C(CSc1nnc(-c2ccco2)[nH]1)c1ccc(Cl)cc1 [KU0029065]
"DNA Pol" of the 186 hits list (screen value)
  DNA Pol: 40
DRC-1, concentration 2.5
  % inhibition Apo pol 10': 25.2453%
  % inhibition Apol 90': 14.2802%
  % inhibition apPOL 180': 10.7111%
DRC-1, concentration 5
  % inhibition Apo pol 10': 33.7865%
  % inhibition Apol 90': 16.5602%
  % inhibition apPOL 180': 8.15%
DRC-1, concentration 10
  % inhibition Apo pol 10': 71.7651%
  % inhibition Apol 90': 48.3315%
  % inhibition apPOL 180': 30.1123%
DRC-1, concentration 20
  % inhibition Apo pol 10': 81.7468%
  % inhibition Apol 90': 65.2838%
  % inhibition apPOL 180': 47.4786%
DRC-1, concentration 40
  % inhibition Apo pol 10': 82.8592%
  % inhibition Apol 90': 75.799%
  % inhibition apPOL 180': 65.3498%
DRC-1, concentration 80
  % inhibition Apo pol 10': 73.082%
  % inhibition Apol 90': 79.1006%
  % inhibition apPOL 180': 74.7958%
DRC-2, concentration 2.5
  % inhibition Apo pol 5': -0.174%
  % inhibition Apol 40': 0.888%
  % inhibition ApPOL 90': 1.21%
  % inhibition apPOL 180': 0.33%
DRC-2, concentration 5
  % inhibition Apo pol 5': -0.717%
  % inhibition Apol 40': 0.406%
  % inhibition ApPOL 90': -0.831%
  % inhibition apPOL 180': -8%
DRC-2, concentration 10
  % inhibition Apo pol 5': 6%
  % inhibition Apol 40': 7%
  % inhibition ApPOL 90': 6%
  % inhibition apPOL 180': -2.67%
DRC-2, concentration 20
  % inhibition Apo pol 5': 26%
  % inhibition Apol 40': 17%
  % inhibition ApPOL 90': 23%
  % inhibition apPOL 180': 15%
DRC-2, concentration 40
  % inhibition Apo pol 5': -5.63%
  % inhibition Apol 40': 0.537%
  % inhibition ApPOL 90': -0.138%
  % inhibition apPOL 180': -5%
DRC-2, concentration 80
  % inhibition Apo pol 5': -27%
  % inhibition Apol 40': -50%
  % inhibition ApPOL 90': -49%
  % inhibition apPOL 180': -45%
Primary screen value, DNA Pol
  DNA Pol: 40

## COc1ccccc1CC(=O)N1CCc2c(nc3cc(-c4ccccc4Cl)[nH]n3c2=O)C1 [Molecule 49, COc1ccccc1CC(=O)N1CCc2c(C1)nc1n(c2=O)[nH]c(c1)c1ccccc1Cl]
[1]
  DNA Pol: 46
[2]
  DNA Pol: 46
DRC-1, concentration 2.5
  % inhibition Apo pol 10' 2.5: 7.56%
  % inhibition Apol 90' 2.5: -3.41%
  % inhibition apPOL 180' 2.5: -9%
DRC-1, concentration 5
  % inhibition Apo pol 10' 5: 17%
  % inhibition Apol 90' 5: 2.19%
  % inhibition apPOL 180' 5: -5.67%
DRC-1, concentration 10
  % inhibition Apo pol 10' 10: 40%
  % inhibition Apol 90' 10: 20%
  % inhibition apPOL 180' 10: 8%
DRC-1, concentration 20
  % inhibition Apo pol 10' 20: 65%
  % inhibition Apol 90' 20: 40%
  % inhibition apPOL 180' 20: 20%
DRC-1, concentration 40
  % inhibition Apo pol 10' 40: 80%
  % inhibition Apol 90' 40: 68%
  % inhibition apPOL 180' 40: 52%
DRC-1, concentration 80
  % inhibition Apo pol 10' 80: 74%
  % inhibition Apol 90' 80: 71%
  % inhibition apPOL 180' 80: 59%
DRC-2, concentration 40
  % inhibition Apo pol 5': 56%
  % inhibition apPOL 180': 56%
  % inhibition Apo pol 5' 40: 56%
  % inhibition Apol 40' 40: 64%
  % inhibition ApPOL 90' 40: 63%
  % inhibition apPOL 180' 40: 56%
DRC-2, concentration 5
  % inhibition Apol 40': 20%
  % inhibition Apo pol 5' 5: 16%
  % inhibition Apol 40' 5: 20%
  % inhibition ApPOL 90' 5: 18%
  % inhibition apPOL 180' 5: 12%
DRC-2, concentration 10
  % inhibition Apol 40': 44%
  % inhibition Apo pol 5' 10: 38%
  % inhibition Apol 40' 10: 44%
  % inhibition ApPOL 90' 10: 43%
  % inhibition apPOL 180' 10: 34%
DRC-2, concentration 20
  % inhibition Apol 40': 56%
  % inhibition apPOL 180': 44%
  % inhibition Apo pol 5' 20: 49%
  % inhibition Apol 40' 20: 56%
  % inhibition ApPOL 90' 20: 54%
  % inhibition apPOL 180' 20: 44%
DRC-2, concentration 80
  % inhibition apPOL 180': 52%
  % inhibition Apo pol 5' 80: 41%
  % inhibition Apol 40' 80: 57%
  % inhibition ApPOL 90' 80: 58%
  % inhibition apPOL 180' 80: 52%
DRC-2, concentration 2.5
  % inhibition Apo pol 5' 2.5: 3.77%
  % inhibition Apol 40' 2.5: 3.38%
  % inhibition ApPOL 90' 2.5: 3.2%
  % inhibition apPOL 180' 2.5: -1%
[3]
  % inhibition Apo pol 10': 40%
  % inhibition Apol 90': 20%
[4]
  % inhibition Apol 90': 40%
  % inhibition apPOL 180': 20%
[5]
  % inhibition apPOL 180': 52%
